These results are taken from US11555031B2, “Compounds and methods for regulating insulin secretion” (The Broad Institute, Inc., priority 2017, dated 2023).

As a reminder, the half-life is the time needed for the level to fall by half in the phase considered. Lower therefore signals fast loss.

One data set has as its system IP-1. The experiment in a line: IP-1 secondary messenger level in treated cells. To be noted: treated cells (data not shown). Format: cell-based. An excerpt:
Further investigation into Compound 8 included measuring levels of the secondary messengers cAMP (FIG. 9) and IP-1 (not shown) in treated cells, as compounds that increase these secondary messengers are known to augment insulin secretion, though often in ways that are not beta-cell specific.

The next data set relates to alpha-TC-1-6. The experiment in a line: Luminescent glucagon secretion assay in alpha-cell line. In kind it is cell-based. The settings on record: compared with DMSO negative control. How it is done:
FIG. 10 depicts the quantification of α-cell secretory activity in cells treated with DMSO, KCl, or Compound 8, using a luminescent assay for glucagon secretion.
To investigate the cell-type specificity of the compound, and to exclude the possibility that Compound 8 acts as a generic secretagogue, the compound was tested on secretion from a rodent alpha-cell line, “alpha-TC-1-6,” using a luciferase reporter for glucagon secretion that mirrors the insulin secretion assay (FIG. 10).

Another data set deals with T1, pancreatic glucokinase (Homo sapiens, UniProt P35557).
T1 sequence (P35557 1-465): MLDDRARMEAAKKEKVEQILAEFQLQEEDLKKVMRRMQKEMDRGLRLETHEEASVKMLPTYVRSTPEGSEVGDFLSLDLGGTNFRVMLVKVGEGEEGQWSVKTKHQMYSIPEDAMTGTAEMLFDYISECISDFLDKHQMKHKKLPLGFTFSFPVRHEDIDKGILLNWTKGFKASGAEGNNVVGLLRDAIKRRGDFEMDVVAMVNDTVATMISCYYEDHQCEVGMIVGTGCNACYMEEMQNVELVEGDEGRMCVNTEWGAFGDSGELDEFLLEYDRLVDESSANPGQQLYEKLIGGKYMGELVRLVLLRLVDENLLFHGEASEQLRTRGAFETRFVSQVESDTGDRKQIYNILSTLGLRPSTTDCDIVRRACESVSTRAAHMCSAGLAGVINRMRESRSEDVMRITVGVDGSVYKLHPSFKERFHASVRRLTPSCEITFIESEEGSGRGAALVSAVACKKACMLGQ
The experiment in a line: Glucokinase activation assay (ATP level). The settings on record: ATP level readout; GK-A positive control. In kind it is biochemical. An excerpt:
FIG. 11 depicts the lack of effect of Compound 8 on glucokinase activity in cells treated with the indicated compounds. The assay is based on the measurement of ATP level. In presence of GK we observe a reduction of level of ATP with respect to the negative control (DMSO).
To rule out the possibility of Compound 8 acting as a glucokinase agonist, another well-established mechanism of augmenting insulin secretion, the compound was subjected to a glucokinase activation assay (FIG. 11).

Another data set in a line: Microsome t1/2, rat. Format: in vitro ADME. To be noted: Rat (SD) microsomes. How it is done: The pharmacokinetic activity profile of Compound 8 was assessed by various standard in vitro measurements. Measurements were performed on human, mouse (CD-1) and rat (SD) microsomes to determine the t1/2, the plasma protein binding (“PPB”) and the plasma stability (“PS”).
The next data set is described as follows: Plasma stability, human. Format: in vitro ADME. As to the method:
(§1) Measurements were performed on human, mouse (CD-1) and rat (SD) microsomes to determine the t1/2, the plasma protein binding (“PPB”) and the plasma stability (“PS”).

A short description of the next data set: Plasma stability, mouse. In kind it is in vitro ADME. As to the method:
as §1

Another data set in a line: Plasma stability, rat. In kind it is in vitro ADME. How it is done:
as §1

Data set [1] deals with Mouse MING insulinoma cells. The experiment in a line: Calcium influx assay (Fluo-4, FLIPR Tetra). Format: cell-based. As to the method:
Mouse MING insulinoma cells were cultured in DMEM medium supplemented with 10% FBS, 100 U/mL penicillin, 100 μg/mL streptomycin, and 55 μM β-mercaptoethanol. Two days prior to the experiment, cells were seeded in 384-well clear-bottom microplates at 17,500 cells/well. For calcium imaging, microplates were washed three times with Hanks' Balanced Salt Solution (HBSS, containing Ca^2+/Mg^2+) using the CyBio Well vario plate washer. Cells were loaded with 2 μM of the calcium indicator Fluo-4 for 1 hour at 37° C. in Krebs-Ringer buffer (KRB) with 3 g/L glucose. After dye loading, the cells were washed again with HBSS and incubated in KRB with 0.5 g/L glucose for 30 minutes at 37° C. (glucose starvation conditions). After glucose starvation, microplates were transferred to FLIPR Tetra, where an automated 384-well dispensing unit added glucose (glucose stimulation conditions) together with Compound 8. Positive control measurements (“+CNT”) were performed in wells with ionomycin to prompt calcium influx without the presence of glucose. Negative control measurements (“−CNT”) were also performed in wells with Compound 8 present in and without glucose. All wells were read simultaneously at 1 Hz intervals. FIG. 20 illustrates the fold increase of measured calcium over baseline measurements performed in the absence of glucose. […] Without wishing to be bound by theory, it is believed that insulin secretagogues acts between KATP channels stimulated by glucose, and the calcium channels that induce insulin secretion.

“Also recorded” adds a separate entry of the source.

On to `Cc1cccc(NC(=O)c2ccc(OCc3c(C)noc3C)cc2)c1C` [Compound 8], for which the IP-1 level entry in the data set with IP-1 is on record as “did not increase levels”. In addition, the “alpha-cell secretory activity (luciferase reporter for glucagon secretion)” value in the data set with alpha-TC-1-6 is “not to augment luciferase secretion; also recorded: insignificant change from DMSO negative control”. Moreover, the glucokinase activation entry on pancreatic glucokinase is “did not show any significant activation effect; also recorded: no change in assay signal”. For the same compound, the half-life in the data set “Microsome t1/2, rat” is 3.62 h. The PS was determined as 106.2 % remaining in “Plasma stability, human”; 96.0 % remaining in “Plasma stability, mouse”; 97.5 % remaining in “Plasma stability, rat”. Also, the “calcium influx in β-cells in the presence of glucose” value in data set [1] (glucose stimulation conditions (16.7 mM glucose), 1 μM, 10 μM) is on record as “does promote calcium influx”. Further, the “dose dependence of calcium influx in beta cells” value in data set [1] (only in the presence of glucose) is listed as “dose dependent response”. Also, in data set [1] (without glucose), the “calcium influx in β-cells in the absence of glucose” value was “does not invoke a calcium influx”.
